# Source: patent publication US12687495B2, “Single cell selection and isolation” (ERASMUS UNIVERSITY MEDICAL CENTER ROTTERDAM, priority 2019, dated 2026)
# Key:
# MCF10A cells = experiment: Uncaging efficiency of caged rhodamine with or without thioxanthone in cells; type: cell-based; settings: for photoactivation / fluorescent response of irradiated cells: cells incubated with 15 uM, 405 nm exposure (1000 J/cm^2)
# Description: FIGS. 11A and 11B illustrate images of cells incubated with a phototagging agent, with and without photosensitizer, respectively.
# For example, uncaging efficiency is determined by a relative decrease in the energy or intensity of light needed to uncage the phototagging agent. For example, a wavelength at which the amount of energy or intensity is compared is more than four hundred nanometer, e.g. 405 nm as shown in the comparative example of FIGS. 11A and 11B.
# The comparison is carried out by directly measuring uncaging efficiency in biological samples. The described experiment was conducted in mammalian cancer cell lines but can be generalized without loss of relevance to other mammalian cell types. The phototagging agent (caged rhodamine with thioxanthone) at 15 uM was incubated with MCF10A cells for 15 min. The caged moiety was then removed by irradiation with 405 nm CW light at 500-1500 J/cm^2. […] The uncaged rhodamine in the cells was imaged by 532 nm excitation (200 mW/0.35 cm^2).
# [1] = UV-Vis absorption spectrum; type: physicochemical
# Excerpt: Without wishing to be bound by theory, the chemical compound and the uncaging schematically proceeds as illustrated in FIG. 12. In a preferred embodiment, the photosensitizer moiety absorbs light of a wavelength from 360 nm-420 nm while the caged fluorophore moiety is essentially insensitive to light of a wavelength >400 nm. This typically means that the absorption coefficient of the photosensitizer as a wavelength of higher than 400 nm is more than 10 times, preferably more than 40 times as high as the absorption coefficient of the caged fluorophore moiety at the same wavelength.
# cells = experiment: Cell permeability assay: fluorescence and retention of activated dye in phototagged cells; type: cell-based; settings: 15 uM for 15 min, PBS rinse, 405 nm light (1000 J/cm^2), 532 nm excitation; FIG. 10B; listed as phototagging agent
# Excerpt: The unreacted agent was then rinsed away with PBS (phosphate buffered Saline). […] After activation, fluorescence of photoactivated uncaged rhodamine was observed and imaged by 532 nm excitation (200 mW/0.35 cm^2).
structure (smiles),measurement,setting,value
COc1cc(COC(=O)N2CCCc3cc4c(cc32)Oc2cc3c(cc2C42OC(=O)c4cc(C(=O)Nc5ccc6sc7ccccc7c(=O)c6c5)ccc42)CCCN3C(=O)OCc2cc(OC)c(OC)cc2[N+](=O)[O-])c([N+](=O)[O-])cc1OC [chemical compound A],light energy at which the caged moiety was removed (uncaging),"MCF10A cells; 405 nm CW light, 15 uM agent incubated with MCF10A cells for 15 min, uncaged rhodamine imaged by 532 nm excitation",500-1500 J/cm^2
same,uncaging efficiency compared to corresponding caged rhodamine without photosensitizer thioxanthone,"MCF10A cells; FIG. 10A, 405 nm",more than ten
same,photoactivation / fluorescent response of irradiated cells,MCF10A cells; listed as caged rhodamine conjugated with thioxanthone,a fluorescent response F could be measured
same,photoactivation / fluorescent response of irradiated cells,MCF10A cells; listed as phototagging agent,photoactivated
same,absorption >400 nm,[1],has absorption >400 nm
same,time the uncaged phototagging agent stays inside cells (photoactivated fluorescence observed),cells,seven
